Consider two compounds from EP1366743A1, “Use of a derivative of 7-oxydated DHEA for treating dry skin” (L'OREAL, priority 2002, dated 2003).

For this test, the system named is sébocytes humains immortalisés en culture, issus de la lignée SZ95. Put plainly: Lipogenesis: total lipids produced by cultured immortalised human sebocytes (Nile Red fluorescence). The class given is cell-based. Particulars: for activation at 10 µM / activation at 1 µM: 48 h, total lipids, variation versus control, 2 days of treatment, confluent SZ95 sebocytes; for activation at 10 µM: 10^-5 M in 0,1% DMSO, read-out: % de variation à 10^-5 M; for activation at 1 µM: 10^-6 M in 0,1% DMSO, read-out: % de variation à 10^-6 M. The source says: La 7α-OH DHEA et la 3-O-acétyl 7-benzoyloxy DHEA ont été testées sur un modèle de sébocytes humains immortalisés en culture, issus de la lignée SZ95 décrite dans Zouboulis, C.C., Seltmann, H., Neitzel, H. & Orfanos, C.E., Establishment and Characterization of an Immortalized Human Sebaceous Gland Cell Line, J. Invest. Dermatol., 113, 1011-1020 (1999).
Le test a consisté à mesurer la quantité de lipides produite par les sébocytes de la lignée (à confluence), en présence ou non d'agents actifs dilués dans le DMSO à 10^-5 M et 10^-6 M, de telle sorte que la quantité finale de DMSO dans le milieu de culture soit de 0,1%. Après 2 jours de traitement, les cellules adhérentes sont traitées par du Rouge de Nile (1µg/ml). Le contenu en lipides est ensuite quantifié par mesure de la fluorescence du colorant (deux couples d'excitation/émission : 485-540nm pour les lipides neutres et 540-620 nm pour les lipides non neutres). Les résultats sont donnés pour les lipides totaux (combinaison des deux mesures).
L'expérience est réalisée en sixplicate (produits dosés) ou dodeplicate (témoin) en plaque de 96 puits.
Le Tableau ci-dessous rassemble les résultats obtenus, en pourcentage de variation par rapport au témoin, ainsi que les coefficients p fournis par le test de Student et qui reflètent la significativité des mesures.

With `C[C@]12CC[C@H](O)CC1=C[C@@H](O)[C@@H]1[C@@H]2CC[C@]2(C)C(=O)CC[C@@H]12` [7α-OH DHEA], the activation at 10 µM came out at 15% and the activation at 1 µM was 6%.
Turning to `CC(=O)O[C@H]1CC[C@@]2(C)C(=CC(OC(=O)c3ccccc3)[C@@H]3[C@@H]2CC[C@]2(C)C(=O)CC[C@@H]32)C1` (some centres unmarked) [3-O-acétyl 7-benzoyloxy DHEA], the activation at 10 µM is 15% and the activation at 1 µM came out at 15%. In addition, where the note is “result in words, 10^-6 M”, the lipogénèse entry is reported as “efficace”.
